Literature values, collected in US11602517B2, “Pharmaceutical composition, comprising polmacoxib and pregabalin, for treatment of pain” (CRYSTALGENOMICS, INC., priority 2018, dated 2023).

Tests used:
[1] = white or light yellow crystalline powder

In the case of `CC(C)C[C@H](CN)CC(=O)O` [Pregabalin, (S)-(+)-3-(aminomethyl)-5-methyl-hexanoic acid], the solubility in water [1] is given as “soluble in water”, the average absorption time (absorbed from the upper part of the small intestine) is given as 6 h and the “time to reach maximum blood concentration” value (absorption in the body) is given as no more than 1.3 h. For the same compound, the bioavailability (in vivo) was “about 90%”.
